PMC10761396, “Evaluation of new alternative methods for the identification of estrogenic, androgenic and steroidogenic effects: a comparative in vitro/in silico study” (Archives of Toxicology, 2023)
Read-outs that look alike come from different tables or passages of the source.

Assays:
ER = tested on: ER; parameters: method as in Mansouri et al. 2016; settings: ref Mansouri et al. 2016; cited from earlier work
human AR = human AR (Homo sapiens, UniProt P10275); experiment: AR radioligand ([3H]methyltrienolone) receptor-binding assay
Protocol: Binding to ER and AR was conducted using standard methods for radioligand assays (Kurata et al. [2005]; Zava et al. [1979]).
The chemicals were tested for their ability to bind to different targets. In radioligand assays, targets included the binding affinity to human (non-selective) ER and human AR (Kurata et al. 2005; Zava et al. 1979). Chemicals were incubated at 10 µM with cells overexpressing ER or AR for 24 h at 4°C, after which, the binding of the radiolabeled ligand ([^3H]estradiol for ER and [^3H]methyltrienolone for AR) was measured by liquid scintillation counting. An increase or decrease higher than 50% were considered to represent significant effects. […] Receptor binding was calculated as a % inhibition of the binding of a radioactively labeled ligand specific for each target.
Each test chemical was tested in a single assay in duplicate.

aromatase = experiment: ToxCast aromatase assays (TOX21_Aromatase_Inhibition) and final ToxCast call; assay type: cell-based; settings: for Final "true" call (ToxCast) Aromatase inhibition: from ToxCast assays; for ToxCast result: aromatase overall ToxCast call
Description: (§1) The performance of different in silico models for ED effects tends to be evaluated on single model for a single effect, such as ER or AR binding, agonism or antagonism (normally by the developer), or a limited number of models using multiple chemicals (Weyrich et al. [2022]). Multi-organisation collaborations have also evaluated multiple models for a specific effect e.g. ER (Mansouri et al. [2016]) and AR (Mansouri et al. [2020]) effects. Therefore, we have conducted a side-by-side comparison of multiple different in silico models covering three pathways in ED, namely ER, AR and aromatase inhibition and compared these with ToxCast-derived final calls, as well as with results from in vitro assays. The efficiency of the in silico models was evaluated as a metric for the ability of the in silico model to generate concrete predictions. […] In vivo data were available for some but not all chemicals; therefore, an evaluation of the performance of the methods was made by comparing the derived overall calls from in silico models with those from the ToxCast database. The final call for each chemical evaluated in the ToxCast assays was made by considering the active-flagged assays and the corresponding cytotoxicity levels, the ToxCast Pathway Model (Browne et al. [2015]) and the CERAPP Potency Level (Mansouri et al. [2016]) for ER effects and the ToxCast Pathway Model (Kleinstreuer et al. [2017]) for AR effects (see Online Resource 1 Supplementary Tables 2, 4 and 6 for the outcome of the ER, AR and aromatase ToxCast assays, additional literature and final calls for each chemical and target).
Aromatase represents only one enzyme involved in steroidogenesis (the conversion of androgens to oestrogens); therefore, the aromatase assay detects effects on 17β-oestradiol production only. […] It is a cell-based assay in which MCF-7 cells are incubated with the test chemical for 24 h before measuring aromatase activities indirectly via a luciferase-based reporter endpoint which is dependent on the binding of the oestradiol–ER complex to the oestrogen response element. A decrease in luciferase activity can occur as a result of direct inhibition of aromatase (preventing the production of oestradiol) or by preventing oestradiol from binding to the ER and thus the binding to the oestrogen RE which initiates the production of luciferase (Lui et al. [2008]).

AR = experiment: ToxCast AR assays and final ToxCast call; settings: for Final "true" call (ToxCast): AR effects, from active assays, cytotoxicity and pathway model; for ToxCast result: AR overall call from Supplementary Table 4; for Final "true" call (ToxCast) AR: from ToxCast assays and ToxCast Pathway Model
Description: A rich source of data can be found in the EPA's ToxCast database (US EPA). This contains ED data for ~ 1800 chemicals in more than 700 high-throughput assay endpoints that cover a range of high-level cell responses. The US EPA is running an Endocrine Disruption Screening Program (EDSP), with the aim of prioritising chemicals using high-throughput screening methods and computational toxicology approaches to evaluate thousands of chemicals for ED activities. The OECD framework for ED assessment (OECD [2018]) requires animal testing at higher levels, where relevant in vitro alternatives are missing e.g. for developmental, reproductive, neurological and immune effects. However, such follow-up testing is not possible for the cosmetics industry especially in the EU due to the complete animal testing ban which came into force in March 2013 (EU [2009]). Even for other industries, animal models are not suitable for assessing ED effects due to issues relating to ethics, capacity, speed and relevance (Patisaul et al. [2018]). Therefore, chemicals which cannot be evaluated using in vivo method must be assessed using alternative methods e.g. in silico and in vitro methods listed in Levels 1 and 2 of the framework described in the OECD 150 test guideline (OECD [2018]).
as §1

H295R cells = experiment: H295R steroidogenesis assay (oestrogen and androgen production); assay type: cell-based, human; settings: for minimal effective concentration: Homo sapiens, NCI-H295R, 48 h
Protocol: The in vitro H295R Steroidogenesis Assay is based on the human adenocarcinoma cell line, NCI-H295R, in which the human steroidogenesis pathway is fully functional (OECD 2022). The effect of the test chemical on the production of 17β-estradiol and testosterone is measured using ERα CALUX and AR CALUX technology.
The test chemical was tested in two independent assays, each in triplicate.

[1] = read-out: Steroidogenesis Androgenicity LEC
[2] = read-out: Steroidogenesis Estrogenicity LEC

human AR, sequence (P10275 whole entry): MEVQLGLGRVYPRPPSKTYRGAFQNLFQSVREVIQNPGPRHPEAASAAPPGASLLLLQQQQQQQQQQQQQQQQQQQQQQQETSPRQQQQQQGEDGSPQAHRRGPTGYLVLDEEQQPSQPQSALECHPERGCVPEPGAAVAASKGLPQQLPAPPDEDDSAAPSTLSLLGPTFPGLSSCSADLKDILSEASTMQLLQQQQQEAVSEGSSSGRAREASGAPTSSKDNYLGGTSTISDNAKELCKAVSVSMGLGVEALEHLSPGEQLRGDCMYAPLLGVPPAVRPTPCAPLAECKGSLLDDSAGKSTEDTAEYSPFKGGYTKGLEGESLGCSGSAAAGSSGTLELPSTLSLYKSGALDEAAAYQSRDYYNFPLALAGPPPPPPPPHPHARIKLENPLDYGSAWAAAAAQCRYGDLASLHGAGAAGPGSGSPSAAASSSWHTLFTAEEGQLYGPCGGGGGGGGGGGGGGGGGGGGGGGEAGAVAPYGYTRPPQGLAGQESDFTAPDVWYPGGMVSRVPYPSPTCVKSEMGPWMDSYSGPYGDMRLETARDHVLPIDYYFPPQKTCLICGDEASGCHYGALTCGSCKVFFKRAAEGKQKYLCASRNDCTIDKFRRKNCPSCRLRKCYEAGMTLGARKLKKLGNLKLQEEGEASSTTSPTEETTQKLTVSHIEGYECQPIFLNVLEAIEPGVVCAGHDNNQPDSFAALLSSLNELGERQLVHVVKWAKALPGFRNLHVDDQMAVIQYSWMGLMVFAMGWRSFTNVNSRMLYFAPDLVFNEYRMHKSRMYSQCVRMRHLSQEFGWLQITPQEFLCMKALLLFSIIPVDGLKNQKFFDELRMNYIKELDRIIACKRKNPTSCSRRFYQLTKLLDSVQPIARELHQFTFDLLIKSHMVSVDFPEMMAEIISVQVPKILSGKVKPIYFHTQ

Row | Structure (SMILES) | CERAPP Potency Level (ER) | AR binding outcome (human AR) | inhibition at 10 µM (human AR; read-out: inhibition of control specific binding to the AR) | Final "true" call (ToxCast) Aromatase inhibition (aromatase) | Final "true" call (ToxCast) (AR) | ToxCast result (AR) | Final "true" call (ToxCast) AR (AR) | minimal effective concentration (H295R cells; [1]) | ToxCast result (aromatase) | minimal effective concentration (H295R cells; [2]) | LEC, androgen production (H295R cells; decrease) | androgen production, fold of control (H295R cells; highest concentration tested, 100 µM)
1 | CC(C)(C)CC(C)(C)c1ccc(O)cc1 [4-TO, 4-tert-octylphenol] | Weak agonist & strong antagonist | significant binding | 10% | Inconclusive | Positive for antagonism | AR antagonist only | Positive for antagonism | > 1 µM | – | – | – | –
2 | CCCCN(CCCC)c1ccc(C(=O)c2ccccc2C(=O)O)c(O)c1 [DBABA, 2-[4-(dibutylamino)-2-hydroxybenzoyl]benzoic acid] | Negative | did not bind to the AR | – | Negative | Negative | Negative | Negative | > 10 µM | Negative | > 10 µM | – | –
3 | O=c1c(-c2ccc(O)cc2)coc2cc(O)ccc12 [Daidzein, daidzein] | Weak agonist & strong antagonist | did not bind to the AR | – | Negative | Inconclusive | – | – | 0.794 µM | Negative | > 3.16 µM | 0.77 µM | 0.06 fold of control
4 | C[C@]12CCC(=O)C[C@@H]1CC[C@@H]1[C@@H]2CC[C@@]2(C)[C@H]1CC[C@]2(C)O [Mestanolone, mestanolone, reference compound] | Weak agonist & strong antagonist | – | – | Negative | Positive for agonism | AR agonist only | Positive for agonism | > 0.00316 µM | Negative | > 0.1 µM | – | –
